The text below walks through data of ChEMBL document CHEMBL1201862, “PubChem BioAssay data set” (2004).

Among the test systems are HT-29; SN12C; SF-295; SK-OV-3; MDA-MB-231; IGROV-1; SW-620; NCI-H23; UACC-257; HOP-62; TK-10; OVCAR-8; OVCAR-5; Malme-3M; T47D; UO-31; MOLT-4; HCT-15; 786-0; A498.
Assay in all cases: growth of human tumour cells (NCI), 48 h

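1) Cells in 96-well plates. 2) Compound, 48 h, 5 concentrations. 3) Linear interpolation between surrounding doses. 4) Unreached endpoint = highest concentration. GI50 = concentration required for 50% inhibition of growth.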 Activity calls are given as the source filed them. No stated cut-off is given here; in the data, active = GI50 up to about 1.1 µM and inactive = higher. Where only a bound is given, the exact number is not on record here.

`O=c1oc2ccccc2cc1/C=N/N1C(=S)N(c2ccccc2)C(=N\c2ccccc2)/C1=N/c1ccccc1`: the GI50 in the assay with HT-29 was > 10 µM (inactive); in the assay on SN12C, > 100 µM (inactive); with SF-295, 28.1 µM (inactive); in the assay with SK-OV-3, > 100 µM (inactive); in the assay with MDA-MB-231, > 100 µM (inactive); in the assay on IGROV-1 it was > 100 µM (inactive). Besides, the GI50 with SW-620 is 8.71 µM (inactive); with NCI-H23 it was > 100 µM (inactive); with UACC-257 it was 96.8 µM (inactive); with HOP-62 it was 52.2 µM (inactive); in the assay on TK-10, > 100 µM (inactive); in the assay with OVCAR-8, 34.6 µM (inactive). Moreover, the GI50 in the assay with OVCAR-5 is > 100 µM (inactive); in the assay on Malme-3M it was > 100 µM (inactive); in the assay with T47D, 3.49 µM (inactive); in the assay with UO-31, > 100 µM (inactive); with MOLT-4, > 100 µM (inactive); in the assay with HCT-15, more than 100 µM. For the same compound, the GI50 in the assay with 786-0 was > 100 µM (inactive).

For `CC12CCc3ccccc3C1=Nc1ccccc12` (stereo not given), the GI50 in the assay with HT-29 is 29.9 µM (inactive); in the assay on SN12C it was 0.164 µM (active); with SF-295 it was 44.4 µM (inactive); in the assay with SK-OV-3, > 100 µM (inactive); with MDA-MB-231, 24.2 µM (inactive); with IGROV-1 it was 71.1 µM (inactive). Besides, the GI50 in the assay with SW-620 was 45.9 µM (inactive); in the assay on NCI-H23 it was 31.1 µM (inactive); in the assay on UACC-257, 49.8 µM (inactive); in the assay on HOP-62, 86.1 µM (inactive); in the assay with TK-10 it was 53.8 µM (inactive); in the assay on OVCAR-8, 42.5 µM (inactive). Also, the GI50 was > 100 µM (inactive) in the assay with OVCAR-5; 28.1 µM (inactive) in the assay with Malme-3M; 21.1 µM (inactive) in the assay with T47D; 24.3 µM (inactive) in the assay on UO-31; 30.4 µM (inactive) in the assay on MOLT-4; 38.1 µM in the assay on HCT-15. In addition, the GI50 with 786-0 was 49.2 µM (inactive).

For the compound `C=CC[C@@H]1C=C[C@@H](C(=O)OC)n2c(=O)n(-c3ccccc3)c(=O)n21`, the GI50 in the assay on HT-29, in the assay with SN12C, with SF-295, in the assay on SK-OV-3, in the assay on MDA-MB-231 and with IGROV-1 was > 100 µM (inactive) in each case. Also, the GI50 in the assay with SW-620, in the assay with NCI-H23, in the assay with UACC-257, in the assay on HOP-62, in the assay with TK-10 and with OVCAR-8 was > 100 µM (inactive) throughout. Moreover, the GI50 in the assay on OVCAR-5 was > 100 µM (inactive); in the assay with T47D, > 100 µM (inactive); in the assay with UO-31, > 100 µM (inactive); in the assay on MOLT-4 it was > 100 µM (inactive); with A498, > 100 µM (inactive); in the assay on HCT-15, more than 100 µM. In addition, the GI50 with 786-0 was > 100 µM (inactive).

Regarding `O=C1C=C(Nc2cccnc2)c2ccccc2/C1=N/O`, the GI50 with HT-29 was 11.1 µM (inactive); with SN12C it was 34.4 µM (inactive); with SF-295, 39.2 µM (inactive); in the assay with SK-OV-3, 46.2 µM (inactive); in the assay on MDA-MB-231, 16.7 µM (inactive); in the assay with IGROV-1, 13.6 µM (inactive). In addition, the GI50 with SW-620 was 18.3 µM (inactive); in the assay with NCI-H23, 19.7 µM (inactive); in the assay with UACC-257 it was 33.1 µM (inactive); in the assay on HOP-62, 23 µM (inactive); with TK-10, > 100 µM (inactive); with OVCAR-8, 21.5 µM (inactive). Besides, the GI50 is > 100 µM (inactive) in the assay on OVCAR-5; 30.1 µM (inactive) in the assay with T47D; 21 µM (inactive) in the assay with UO-31; 15.7 µM (inactive) with MOLT-4; 41.3 µM (inactive) with A498; 15.2 µM in the assay on HCT-15. In addition, the GI50 in the assay with 786-0 is 57.7 µM (inactive).

Regarding `CCOC(=O)Nc1sc2c(c1C#N)CC(C)CC2` (stereo not given), the GI50 in the assay with HT-29 was 3.06 µM (inactive); in the assay on SN12C, 9.62 µM (inactive); with SF-295 it was 11.6 µM (inactive); in the assay on SK-OV-3 it was 23 µM (inactive); in the assay on MDA-MB-231, 5.56 µM (inactive); in the assay on IGROV-1, 7.52 µM (inactive). Also, the GI50 is 4.74 µM (inactive) with SW-620; 25.6 µM (inactive) with NCI-H23; 11 µM (inactive) in the assay with UACC-257; 9.79 µM (inactive) in the assay on HOP-62; 6.62 µM (inactive) with TK-10; 8.75 µM (inactive) in the assay on OVCAR-8. Also, the GI50 in the assay on OVCAR-5 was 16.3 µM (inactive); in the assay on Malme-3M, 8.55 µM (inactive); in the assay with T47D, 10.5 µM (inactive); in the assay with UO-31, 8.91 µM (inactive); in the assay on MOLT-4 it was 4.9 µM (inactive); in the assay on HCT-15 it was 2.75 µM. Moreover, the GI50 in the assay on 786-0 was 10.1 µM (inactive).

For `C=CCN1C[C@@H](C)N([C@@H](c2ccc(C(=O)N(CC)CC)cc2)c2cccc(OC)c2)C[C@@H]1C`, the GI50 in the assay with HT-29, in the assay on SN12C, with SF-295, in the assay with SK-OV-3, in the assay with MDA-MB-231 and in the assay with IGROV-1 was > 100 µM (inactive) in each case. Further, the GI50 in the assay on SW-620, in the assay on NCI-H23, with HOP-62, in the assay with OVCAR-8, with OVCAR-5 and with Malme-3M was > 100 µM (inactive) throughout. Also, the GI50 is > 100 µM (inactive) with T47D; > 100 µM (inactive) in the assay on UO-31; > 100 µM (inactive) with MOLT-4; > 100 µM (inactive) in the assay on A498; more than 100 µM in the assay on HCT-15; > 100 µM (inactive) with 786-0.

As to `COc1cc(C2c3cc4c(cc3OC(NN)C2C)OCO4)cc(OC)c1OC` (stereo not given), the GI50 was 0.36 µM (active) in the assay on HT-29; 0.757 µM (active) in the assay with SN12C; 0.406 µM (active) with SF-295; 1.38 µM (inactive) with SK-OV-3; 4.09 µM (inactive) in the assay on MDA-MB-231; 1.46 µM (inactive) in the assay with IGROV-1. Besides, the GI50 with SW-620 was 0.447 µM (active); with NCI-H23 it was 1.11 µM (active); in the assay with HOP-62 it was 0.462 µM (active); with TK-10, 28.3 µM (inactive); in the assay on OVCAR-8 it was 1.93 µM (inactive); in the assay with Malme-3M it was 0.34 µM (active). The GI50 is 87.3 µM (inactive) in the assay with T47D; 6.85 µM (inactive) in the assay with UO-31; 0.406 µM (active) in the assay on MOLT-4; 0.257 µM (active) with A498; 0.406 µM in the assay on HCT-15; 0.653 µM (active) in the assay on 786-0.

As to `NC(=S)c1cccc(C2Nc3ccccc3O2)c1` (stereo not given), the GI50 was 92.9 µM (inactive) in the assay on HT-29; < 0.01 µM (active) in the assay with SN12C; 68.9 µM (inactive) with SF-295; > 100 µM (inactive) in the assay with SK-OV-3; 6.25 µM (inactive) in the assay on MDA-MB-231; > 100 µM (inactive) with IGROV-1. The GI50 was 75.7 µM (inactive) in the assay with SW-620; 49.9 µM (inactive) with NCI-H23; 22.1 µM (inactive) in the assay on UACC-257; > 100 µM (inactive) in the assay on HOP-62; 81.1 µM (inactive) in the assay with TK-10; > 100 µM (inactive) in the assay on OVCAR-8. Further, the GI50 with OVCAR-5 is > 100 µM (inactive); with Malme-3M, > 100 µM (inactive); in the assay on T47D, 46.7 µM (inactive); with UO-31, > 100 µM (inactive); in the assay with MOLT-4 it was 41.7 µM (inactive); in the assay on HCT-15 it was 21.9 µM. Further, in the assay with 786-0, the GI50 is > 100 µM (inactive).

Consider `Brc1cccc(/N=N/N2CCCC2)c1`, for which the GI50 in the assay on SN12C was > 100 µM (inactive); with SF-295, 97.5 µM (inactive); in the assay with SK-OV-3 it was > 100 µM (inactive); in the assay on MDA-MB-231, > 100 µM (inactive); in the assay on IGROV-1 it was > 100 µM (inactive); with SW-620 it was > 100 µM (inactive). Also, the GI50 in the assay on NCI-H23 is 67.9 µM (inactive); in the assay on UACC-257, > 100 µM (inactive); in the assay with HOP-62 it was > 100 µM (inactive); with TK-10, > 100 µM (inactive); in the assay on OVCAR-8, > 100 µM (inactive); in the assay with OVCAR-5 it was > 100 µM (inactive). The GI50 was 50.2 µM (inactive) with T47D; 56.1 µM (inactive) in the assay on UO-31; 71.8 µM (inactive) in the assay on MOLT-4; > 100 µM (inactive) with A498; 49.4 µM with HCT-15; > 100 µM (inactive) in the assay on 786-0.

On to `Clc1cccc(Cl)c1C1SCc2nc3cc4ccccc4cc3n21` (stereo not given), for which the GI50 in the assay on HT-29, in the assay with SN12C, in the assay with SF-295, in the assay with SK-OV-3, in the assay on MDA-MB-231 and in the assay with IGROV-1 was > 100 µM (inactive) each time. Also, the GI50 in the assay on SW-620, with NCI-H23, with UACC-257, in the assay on HOP-62, with TK-10 and in the assay with OVCAR-8 was > 100 µM (inactive) throughout. Further, the GI50 in the assay on OVCAR-5 is > 100 µM (inactive); in the assay with Malme-3M, > 100 µM (inactive); with T47D, > 100 µM (inactive); with UO-31, > 100 µM (inactive); in the assay on MOLT-4, > 100 µM (inactive); with HCT-15, more than 100 µM. Also, the GI50 in the assay with 786-0 was > 100 µM (inactive).

As to `CC(=O)Oc1cc(S(=O)(=O)Nc2n[nH]c(Nc3ccc(C)cc3)n2)c(S)cc1Cl`, the GI50 in the assay with HT-29 was > 100 µM (inactive); in the assay with SN12C, > 100 µM (inactive); in the assay on SF-295, > 100 µM (inactive); in the assay with MDA-MB-231, 51.1 µM (inactive); in the assay with IGROV-1, > 100 µM (inactive); with SW-620 it was > 100 µM (inactive). For the same compound, the GI50 in the assay with NCI-H23, in the assay on UACC-257, with TK-10, in the assay on OVCAR-8, in the assay on OVCAR-5 and in the assay with Malme-3M was > 100 µM (inactive) each time. In addition, the GI50 with T47D was > 100 µM (inactive); in the assay with UO-31, > 100 µM (inactive); in the assay on MOLT-4 it was 83.2 µM (inactive); with A498, > 100 µM (inactive); in the assay with HCT-15 it was more than 100 µM; in the assay on 786-0, > 100 µM (inactive).
